Assay results from the Kinase Knowledgebase extract (Sharma et al. 2016).

The compounds below were run against MAPK14 (UniProt Q16539) (assay: p38 Inhibition Assay (in Vitro)).
Chain of MAPK14 (Q16539 whole entry, looked up): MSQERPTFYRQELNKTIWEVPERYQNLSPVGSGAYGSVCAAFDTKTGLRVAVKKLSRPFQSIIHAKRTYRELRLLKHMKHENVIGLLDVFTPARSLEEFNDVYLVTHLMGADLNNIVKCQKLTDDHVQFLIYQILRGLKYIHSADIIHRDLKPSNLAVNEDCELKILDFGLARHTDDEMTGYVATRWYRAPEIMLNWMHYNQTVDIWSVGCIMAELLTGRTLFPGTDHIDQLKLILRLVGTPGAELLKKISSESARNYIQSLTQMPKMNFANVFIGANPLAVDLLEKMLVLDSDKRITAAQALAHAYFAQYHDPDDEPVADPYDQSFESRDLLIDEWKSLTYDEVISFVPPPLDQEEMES
For `O=C(NCc1ccc(S(=O)(=O)N2CCC(C(=O)c3ccc(F)cc3F)CC2)s1)c1ccc(Cl)cc1`, the IC50 was over 30 µM.
`COc1cccc(C(=O)NCc2ccc(S(=O)(=O)N3CCC(Nc4ccccc4[N+](=O)[O-])CC3)s2)c1` was tested, and the IC50 was over 30 µM.
For `COc1cccc(NC2CCN(S(=O)(=O)c3ccc(CNC(=O)c4ccc([N+](=O)[O-])cc4)s3)CC2)c1`, the IC50 was over 30 µM.
With `O=C(NCc1ccc(S(=O)(=O)N2CCC(Nc3ccc(Cl)cc3)CC2)s1)c1ccc(Cl)cc1` the IC50 was over 30 µM.
For `NS(=O)(=O)c1cccc(NC2CCN(S(=O)(=O)c3ccc(CNC(=O)c4ccc(Cl)cc4)s3)CC2)c1`, the IC50 was over 30 µM.
Compound `O=C(NCc1ccc(S(=O)(=O)N2CCC(n3nnc4ccccc43)CC2)s1)c1ccccc1O` has an IC50 of over 30 µM.
For `O=C(NCc1ccc(S(=O)(=O)N2CCC(n3nnc4ccccc43)CC2)s1)c1ccc(Cl)cc1`, the IC50 was over 30 µM.
`O=C(NCc1ccc(S(=O)(=O)N2CCC(Nc3cccc(S(=O)(=O)CCO)c3)CC2)s1)c1ccc(Cl)cc1` gave an IC50 of over 30 µM.
`O=C(NCc1ccc(S(=O)(=O)N2CCC(n3cnc4ccccc43)CC2)s1)c1ccc(Cl)cc1` was tested, and the IC50 was over 30 µM.
For `CCCc1cccc(NC2CCN(S(=O)(=O)c3ccc(CNC(=O)c4ccc(Cl)cc4)s3)CC2)c1`, the IC50 was over 30 µM.
`COC(=O)c1cccc(NC2CCN(S(=O)(=O)c3ccc(CNC(=O)c4ccc([N+](=O)[O-])cc4)s3)CC2)c1` gave an IC50 of over 30 µM.
For `O=C(NCc1ccc(S(=O)(=O)N2CCN(C(=O)c3cccc4ccccc34)CC2)s1)c1ccc(Cl)cc1`, the IC50 was over 30 µM.
`O=C(NCc1ccc(S(=O)(=O)N2CCCN(C(=O)Cc3ccccc3)CC2)s1)c1ccc(Cl)cc1` showed an IC50 of over 30 µM.
For `O=C(NCc1ccc(S(=O)(=O)N2CCC(Nc3ccccc3)CC2)s1)c1ccc(Cl)cc1`, the IC50 was over 30 µM.
